System: NIDDM mice
Assay: Oral glucose tolerance test after 28 days of oral dosing in NIDDM db/db mice (Example 2)
Assay type: in vivo, mouse
Conditions: HC extract 80 mg/Kg, sitagliptin 40 mg/Kg, p.o.
Procedure: Non-insulin dependent diabetic mellitus (NIDDM) male db/db (BKS.Cg-Dock 7^m+/+Lepr^db/JNarl) were used in the present study. They were supplied by National Laboratory Animal Center (NLAC) (Taipei, Taiwan) or by Jackson Laboratory (Bar Harbor, Me., USA). […] In Example 2, test compounds (i.e., HC extract (40 mg/Kg from day 1 to day 14; 80 mg/Kg from day 14 to day 28, p.o.), sitagliptin (40 mg/Kg, p.o.), or the combination of HC extract and sitagliptin) at the designated dose was fed to each mice by oral gavage from day 1, and continued for 27 consecutive days to day 28. […] Blood glucose, insulin, glucagon, glycated haemoglobin (HbA1c) levels were measured on designated days after overnight fasting. Then, oral glucose tolerance test (OGTT) was performed to evaluate effects of respective treatments on glucose homeostasis. Body weight of each test animal was also measured during the study period. The db/db mice were randomly divided into 4 groups: (1) the vehicle control group, (2) the HC extract (80 mg/kg), (3) the sitagliptin (40 mg/Kg) group, and […] the HC extract (80 mg/kg)+sitagliptin (40 mg/Kg) group. The mice were fasted for 5 hours and then respectively received the indicated treatments. […] The animals were treated by the manner described in the “Material and Methods” section.

N[C@@H](CC(=O)N1CCn2c(nnc2C(F)(F)F)C1)Cc1cc(F)c(F)cc1F [sitagliptin]
reduction in the level of total blood glucose (FIG. 3) (30 minutes time point post glucose treatment): about 11.3% | effect on fasting blood glucose level (FIG. 2) (combination judged 30 minutes post glucose treatment vs either alone): reduction in the fasting blood glucose level

Reference: patent publication US20190183959A1, “COMPOSITIONS, KITS AND METHODS FOR TREATING TYPE II DIABETES MELLITUS” (VITNOVO, INC., priority 2017, published 2019)
